Read-outs that look alike come from different tables or passages of the source.

The test system of data set [1] is PTC in humans. As to conditions: cited from earlier work.
Data set [2] concerns iPS(Foreskin)-4-derived d8 HPTC-like cells.
The subject of data set [3] is HPTCs. Conditions: similar experiments performed with HPTCs; cited from earlier work.
The test system of data set [4] is hiPSC-derived HPTC-like cells. In words: nephrotoxicology in vitro model based on interleukin-6/interleukin-8 expression (Example 1).
Data set [5] has as its system hiPSC-derived HPTC-like cells.
Data set [6] has as its target OCT2 (Homo sapiens, UniProt O15244). As to conditions: co-incubation of 100 μg/ml rifampicin with 2 mM cimetidine, iPS(Foreskin)-4-derived d8 cells.
[7] abbreviates: 1 μg/ml, overnight (16 h), qPCR, normalized to vehicle control (=1), mean +/- s.d., n=3.
The mark [8] stands for this setting: 10 μg/ml, overnight (16 h), qPCR, normalized to vehicle control (=1), mean +/- s.d., n=3.
Where [9] appears, read: 100 μg/ml, overnight (16 h), qPCR, normalized to vehicle control (=1), mean +/- s.d., n=3.
Setting [10] is: 1,000 μg/ml, overnight (16 h), qPCR, normalized to vehicle control (=1), mean +/- s.d., n=3.

Chain of OCT2 (O15244 whole entry): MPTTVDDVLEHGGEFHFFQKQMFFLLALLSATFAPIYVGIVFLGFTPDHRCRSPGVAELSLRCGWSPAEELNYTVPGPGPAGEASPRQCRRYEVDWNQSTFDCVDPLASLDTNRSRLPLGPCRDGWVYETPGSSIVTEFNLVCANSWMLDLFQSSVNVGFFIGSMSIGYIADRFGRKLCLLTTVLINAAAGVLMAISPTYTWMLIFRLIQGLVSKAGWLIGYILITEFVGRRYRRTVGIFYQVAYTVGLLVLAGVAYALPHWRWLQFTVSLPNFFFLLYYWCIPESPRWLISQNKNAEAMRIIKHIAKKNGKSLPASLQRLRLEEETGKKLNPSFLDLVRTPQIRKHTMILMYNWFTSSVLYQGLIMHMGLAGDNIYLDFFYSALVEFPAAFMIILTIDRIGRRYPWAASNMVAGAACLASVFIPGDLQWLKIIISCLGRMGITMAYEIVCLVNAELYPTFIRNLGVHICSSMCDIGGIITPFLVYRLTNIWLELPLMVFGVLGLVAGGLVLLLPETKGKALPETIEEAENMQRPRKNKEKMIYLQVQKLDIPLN

Turning to `CC(=O)OCC1=C(C(=O)O)N2C(=O)[C@@H](NC(=O)CCC[C@@H](N)C(=O)O)[C@H]2SC1` [Cephalosporin C], in data set [1], the “nephrotoxicity / toxicity for PTC in humans” value (“nephrotoxicity / toxicity” for short) is given as “directly toxic for PTC”.

On to `CC1=C2C(=CO[C@H](C)[C@H]2C)C(O)=C(C(=O)O)C1=O` [Citrinin], for which, in data set [1], the “nephrotoxicity / toxicity” value is recorded as “directly toxic for PTC”. In data set [2] (human), the “increase of IL6 expression” value is around 6 fold and the “increase of IL8 expression” value is “no increase in IL8 expression was observed”.

As to `OCCO` [Ethylene glycol], the “nephrotoxicity / toxicity” value in data set [1] is reported as “nephrotoxicants that do not damage PTC directly”.

With `Cl[C@H]1[C@H](Cl)[C@@H](Cl)[C@@H](Cl)[C@H](Cl)[C@H]1Cl` [Lindane], in data set [1], the “nephrotoxicity / toxicity” value was “nephrotoxicants that do not damage PTC directly”.

As for `[Cl-].[Li+]` [Lithium chloride], the “nephrotoxicity / toxicity” value in data set [1] is listed as “nephrotoxicants that do not damage PTC directly”.

As for `C[n+]1ccc(-c2cc[n+](C)cc2)cc1` [Paraquat], the “cell numbers after treatment” value in data set [3] is recorded as “a decrease in cell numbers was not observed”. Besides, the “nephrotoxicity / toxicity” value in data set [1] is “directly toxic for PTC”. Besides, the “IL-6 expression after treatment” value in data set [4] is listed as “increase”.

With `CO[C@H]1/C=C/O[C@@]2(C)Oc3c(C)c(O)c4c(O)c(c(/C=N/N5CCN(C)CC5)c(O)c4c3C2=O)NC(=O)/C(C)=C\C=C\[C@H](C)[C@H](O)[C@@H](C)[C@@H](O)[C@@H](C)[C@H](OC(C)=O)[C@@H]1C` [Rifampicin], in data set [2] (human, 16 h, 1 μg/ml), the “IL6 Expression Levels” value is 5.8 ± 0.9 and the “IL8 Expression Levels” value was found to be 2.5 ± 0.4. Also, in data set [2] (human, 16 h, 10 μg/ml), the “IL6 Expression Levels” value is reported as 4.5 ± 0.3 and the “IL8 Expression Levels” value stood at 3.4 ± 0.3. Moreover, in data set [2] (human, 16 h, 100 μg/ml), the “IL6 Expression Levels” value is recorded as 2.3 ± 0.2, the “IL8 Expression Levels” value worked out at 9.7 ± 0.3, the “increase of IL6 expression” value is around 17 fold and the “increase of IL8 expression” value is recorded as around 18 fold. Further, in data set [2] (human, 16 h, 1000 μg/ml), the “IL6 Expression Levels” value is on record as 9.3 ± 0.6 and the “IL8 Expression Levels” value is reported as 18.2 ± 1.2. Further, in data set [5], the “IL-6 expression after treatment” value was “increase” and the “IL-8 expression after treatment” value was “increase”.

Turning to `CC(C)[C@H](N)C(=O)OCCOCn1cnc2c(=O)[nH]c(N)nc21` [Valacyclovir], the “IL6 Expression Levels” value in data set [2] (human, 16 h, 1 μg/ml) is listed as 1.3 ± 0.1; in data set [2] (human, 16 h, 10 μg/ml), 1.3 ± 0.1; in data set [2] (human, 16 h, 100 μg/ml) it was 1.6 ± 0.1; in data set [2] (human, 16 h, 1000 μg/ml), 2.8 ± 0.4. Besides, the “IL8 Expression Levels” value came to 1.5 ± 0.1 in data set [2] (human, 16 h, 1 μg/ml); 1.4 ± 0.1 in data set [2] (human, 16 h, 10 μg/ml); 1.0 ± 0.5 in data set [2] (human, 16 h, 100 μg/ml); 32.5 ± 1.4 in data set [2] (human, 16 h, 1000 μg/ml).

For the compound `CN[C@H](CC(C)C)C(=O)N[C@H]1C(=O)N[C@@H](CC(N)=O)C(=O)N[C@H]2C(=O)N[C@H]3C(=O)N[C@H](C(=O)N[C@H](C(=O)O)c4cc(O)cc(O)c4-c4cc3ccc4O)[C@H](O)c3ccc(c(Cl)c3)Oc3cc2cc(c3O[C@@H]2O[C@H](CO)[C@@H](O)[C@H](O)[C@H]2O[C@H]2C[C@](C)(N)[C@H](O)[C@H](C)O2)Oc2ccc(cc2Cl)[C@H]1O` [Vancomycin], the “IL6 Expression Levels” value in data set [2] (setting [7]) turned out to be 1.5 ± 0.3; in data set [2] (setting [8]), 1.4 ± 0.1; in data set [2] (setting [9]) it was 1.4 ± 0.1; in data set [2] (setting [10]) it was 3.1 ± 0.2. Moreover, the “IL8 Expression Levels” value in data set [2] (setting [7]) is listed as 0.7 ± 0.0; in data set [2] (setting [8]), 0.6 ± 0.2; in data set [2] (setting [9]) it was 2.9 ± 0.2; in data set [2] (setting [10]), 98.5 ± 4.5.

Take `CN/C(=N/CCSCc1nc[nH]c1C)NC#N` [cimetidine]: in data set [6], the “reduction of rifampicin-induced IL6 expression” value was determined as 40% and the “reduction of rifampicin-induced IL8 expression” value was determined as 26%.

Consider Gentamicin, for which the “cell numbers after treatment” value in data set [3] was “a decrease in cell numbers was not observed”. Moreover, in data set [1], the “nephrotoxicity / toxicity” value was “directly toxic for PTC”.

Values taken from patent US10351827B2, “Method for differentiating induced pluripotent stem cells into renal proximal tubular cell-like cells” (priority 2013, dated 2019).
